{"source": "ChEMBL document CHEMBL1201862", "about": "“PubChem BioAssay data set” (2004)", "test_in_all_cases": "growth of human tumour cells (NCI), 48 h", "key": {"[1]": {"system": "SF-295"}, "[2]": {"system": "Hs-578T"}, "[3]": {"system": "MOLT-4"}, "[4]": {"system": "MDA-MB-231"}, "[5]": {"system": "MCF7"}, "[6]": {"system": "SNB-75"}, "[7]": {"system": "SF-539"}, "[8]": {"system": "CAKI-1"}, "[9]": {"system": "OVCAR-5"}, "[10]": {"system": "SNB-19"}, "[11]": {"system": "OVCAR-8"}, "[12]": {"system": "786-0"}, "[13]": {"system": "UO-31"}, "[14]": {"system": "HCT-15"}, "[15]": {"system": "K562"}, "[16]": {"system": "DU-145"}, "[17]": {"system": "KM12"}, "[18]": {"system": "SF-268"}, "[19]": {"system": "HOP-62"}, "[20]": {"system": "SW-620"}, "[21]": {"system": "HCT-116"}, "[22]": {"system": "SK-MEL-5"}, "[23]": {"system": "COLO 205"}, "[24]": {"system": "HCC 2998"}, "[25]": {"system": "T47D"}, "[26]": {"system": "U-251"}, "[27]": {"system": "NCI-H23"}, "[28]": {"system": "NCI/ADR-RES"}, "[29]": {"system": "UACC-62"}, "[30]": {"system": "IGROV-1"}, "[31]": {"system": "SR"}, "[32]": {"system": "TK-10"}, "[33]": {"system": "SK-MEL-28"}, "[34]": {"system": "UACC-257"}, "[35]": {"system": "OVCAR-4"}, "[36]": {"system": "HT-29"}, "[37]": {"system": "RXF 393"}, "[38]": {"system": "EKVX"}, "[39]": {"system": "A549"}, "[40]": {"system": "OVCAR-3"}, "[41]": {"system": "SK-MEL-2"}, "[42]": {"system": "MDA-MB-435"}, "[43]": {"system": "LOX IMVI"}, "[44]": {"system": "NCI-H226"}, "[45]": {"system": "CCRF-CEM"}, "[46]": {"system": "Malme-3M"}, "[47]": {"system": "PC-3"}, "[48]": {"system": "NCI-H522"}, "[49]": {"system": "M14"}, "[50]": {"system": "A498"}, "[51]": {"system": "ACHN"}, "[52]": {"system": "RPMI-8226"}, "[53]": {"system": "NCI-H460"}, "[54]": {"system": "SN12C"}, "[55]": {"system": "HL-60"}, "[56]": {"system": "BT-549"}, "[57]": {"system": "MDA-N"}, "[58]": {"system": "HOP-92"}}, "note": "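Values below derive from 48-hour exposures of cells grown in 96-well plates, with endpoints linearly interpolated between the two concentrations bracketing the appropriate inhibition level. GI50 is the concentration that inhibits growth by half.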 Calls of active or inactive are those of the source. Cut-off read from the data, not from the text of the source: active = GI50 up to about 1.1 µM and inactive = higher."}
{"smiles": "CSS(C)(=O)=O", "values": [{"measurement": "GI50", "setting": "[1]", "result": "23.1 µM (inactive)"}, {"measurement": "GI50", "setting": "[2]", "result": "49.2 µM (inactive)"}, {"measurement": "GI50", "setting": "[3]", "result": "2.43 µM (inactive)"}, {"measurement": "GI50", "setting": "[4]", "result": "30.8 µM (inactive)"}, {"measurement": "GI50", "setting": "[5]", "result": "26.7 µM (inactive)"}, {"measurement": "GI50", "setting": "[6]", "result": "32.3 µM (inactive)"}, {"measurement": "GI50", "setting": "[7]", "result": "20.4 µM (inactive)"}, {"measurement": "GI50", "setting": "[8]", "result": "22.8 µM (inactive)"}, {"measurement": "GI50", "setting": "[9]", "result": "17.5 µM (inactive)"}, {"measurement": "GI50", "setting": "[10]", "result": "> 100 µM (inactive)"}, {"measurement": "GI50", "setting": "[11]", "result": "27.4 µM (inactive)"}, {"measurement": "GI50", "setting": "[12]", "result": "39.6 µM (inactive)"}, {"measurement": "GI50", "setting": "[13]", "result": "24.5 µM (inactive)"}, {"measurement": "GI50", "setting": "[14]", "result": 24.9, "unit": "µM"}, {"measurement": "GI50", "setting": "[15]", "result": "31.3 µM (inactive)"}, {"measurement": "GI50", "setting": "[16]", "result": "21.5 µM (inactive)"}, {"measurement": "GI50", "setting": "[17]", "result": "34.3 µM (inactive)"}, {"measurement": "GI50", "setting": "[18]", "result": "31.5 µM (inactive)"}, {"measurement": "GI50", "setting": "[19]", "result": "44.2 µM (inactive)"}, {"measurement": "GI50", "setting": "[20]", "result": "46.7 µM (inactive)"}, {"measurement": "GI50", "setting": "[21]", "result": "58.6 µM (inactive)"}, {"measurement": "GI50", "setting": "[22]", "result": "61.5 µM (inactive)"}, {"measurement": "GI50", "setting": "[23]", "result": "1.95 µM (inactive)"}, {"measurement": "GI50", "setting": "[24]", "result": "27.8 µM (inactive)"}, {"measurement": "GI50", "setting": "[25]", "result": "15.1 µM (inactive)"}, {"measurement": "GI50", "setting": "[26]", "result": "37.1 µM (inactive)"}, {"measurement": "GI50", "setting": "[27]", "result": "19.9 µM (inactive)"}, {"measurement": "GI50", "setting": "[28]", "result": "58.9 µM (inactive)"}, {"measurement": "GI50", "setting": "[29]", "result": "19.4 µM (inactive)"}, {"measurement": "GI50", "setting": "[30]", "result": "23.2 µM (inactive)"}, {"measurement": "GI50", "setting": "[31]", "result": "15.3 µM (inactive)"}, {"measurement": "GI50", "setting": "[32]", "result": "24.7 µM (inactive)"}, {"measurement": "GI50", "setting": "[33]", "result": "21.6 µM (inactive)"}, {"measurement": "GI50", "setting": "[34]", "result": "23.9 µM (inactive)"}, {"measurement": "GI50", "setting": "[35]", "result": "27.4 µM (inactive)"}, {"measurement": "GI50", "setting": "[36]", "result": "31 µM (inactive)"}, {"measurement": "GI50", "setting": "[37]", "result": "26.5 µM (inactive)"}, {"measurement": "GI50", "setting": "[38]", "result": "27.9 µM (inactive)"}, {"measurement": "GI50", "setting": "[39]", "result": "44.7 µM (inactive)"}, {"measurement": "GI50", "setting": "[40]", "result": "16.7 µM (inactive)"}, {"measurement": "GI50", "setting": "[41]", "result": "27.3 µM (inactive)"}, {"measurement": "GI50", "setting": "[42]", "result": "20.2 µM (inactive)"}, {"measurement": "GI50", "setting": "[43]", "result": "60.1 µM (inactive)"}, {"measurement": "GI50", "setting": "[44]", "result": "21.4 µM (inactive)"}, {"measurement": "GI50", "setting": "[45]", "result": "< 0.01 µM (active)"}, {"measurement": "GI50", "setting": "[46]", "result": "26.9 µM (inactive)"}, {"measurement": "GI50", "setting": "[47]", "result": "18 µM (inactive)"}, {"measurement": "GI50", "setting": "[48]", "result": "18.2 µM (inactive)"}, {"measurement": "GI50", "setting": "[49]", "result": "26.6 µM (inactive)"}, {"measurement": "GI50", "setting": "[50]", "result": "> 100 µM (inactive)"}, {"measurement": "GI50", "setting": "[51]", "result": "26.2 µM (inactive)"}, {"measurement": "GI50", "setting": "[52]", "result": "1.95 µM (inactive)"}, {"measurement": "GI50", "setting": "[53]", "result": "> 100 µM (inactive)"}, {"measurement": "GI50", "setting": "[54]", "result": "21.5 µM (inactive)"}, {"measurement": "GI50", "setting": "[55]", "result": "24.9 µM (inactive)"}]}
{"smiles": "CC(NO)/C(=N/O)c1ccco1", "note": "(centres undefined)", "values": [{"measurement": "GI50", "setting": "[1]", "result": "> 10 µM (inactive)"}, {"measurement": "GI50", "setting": "[56]", "result": "> 10 µM (inactive)"}, {"measurement": "GI50", "setting": "[3]", "result": "> 10 µM (inactive)"}, {"measurement": "GI50", "setting": "[4]", "result": "> 10 µM (inactive)"}, {"measurement": "GI50", "setting": "[5]", "result": "> 10 µM (inactive)"}, {"measurement": "GI50", "setting": "[8]", "result": "> 10 µM (inactive)"}, {"measurement": "GI50", "setting": "[9]", "result": "> 10 µM (inactive)"}, {"measurement": "GI50", "setting": "[10]", "result": "> 10 µM (inactive)"}, {"measurement": "GI50", "setting": "[11]", "result": "> 10 µM (inactive)"}, {"measurement": "GI50", "setting": "[12]", "result": "> 10 µM (inactive)"}, {"measurement": "GI50", "setting": "[13]", "result": "> 10 µM (inactive)"}, {"measurement": "GI50", "setting": "[14]", "result": "> 10", "unit": "µM"}, {"measurement": "GI50", "setting": "[15]", "result": "> 10 µM (inactive)"}, {"measurement": "GI50", "setting": "[16]", "result": "> 10 µM (inactive)"}, {"measurement": "GI50", "setting": "[17]", "result": "> 10 µM (inactive)"}, {"measurement": "GI50", "setting": "[18]", "result": "> 10 µM (inactive)"}, {"measurement": "GI50", "setting": "[19]", "result": "> 10 µM (inactive)"}, {"measurement": "GI50", "setting": "[20]", "result": "> 10 µM (inactive)"}, {"measurement": "GI50", "setting": "[21]", "result": "> 10 µM (inactive)"}, {"measurement": "GI50", "setting": "[23]", "result": "> 10 µM (inactive)"}, {"measurement": "GI50", "setting": "[24]", "result": "> 10 µM (inactive)"}, {"measurement": "GI50", "setting": "[25]", "result": "> 10 µM (inactive)"}, {"measurement": "GI50", "setting": "[57]", "result": "> 10 µM (inactive)"}, {"measurement": "GI50", "setting": "[26]", "result": "> 10 µM (inactive)"}, {"measurement": "GI50", "setting": "[27]", "result": "> 10 µM (inactive)"}, {"measurement": "GI50", "setting": "[28]", "result": "> 10 µM (inactive)"}, {"measurement": "GI50", "setting": "[31]", "result": "> 10 µM (inactive)"}, {"measurement": "GI50", "setting": "[32]", "result": "> 10 µM (inactive)"}, {"measurement": "GI50", "setting": "[34]", "result": "> 10 µM (inactive)"}, {"measurement": "GI50", "setting": "[35]", "result": "> 10 µM (inactive)"}, {"measurement": "GI50", "setting": "[36]", "result": "> 10 µM (inactive)"}, {"measurement": "GI50", "setting": "[37]", "result": "> 10 µM (inactive)"}, {"measurement": "GI50", "setting": "[38]", "result": "> 10 µM (inactive)"}, {"measurement": "GI50", "setting": "[39]", "result": "> 10 µM (inactive)"}, {"measurement": "GI50", "setting": "[40]", "result": "> 10 µM (inactive)"}, {"measurement": "GI50", "setting": "[41]", "result": "> 10 µM (inactive)"}, {"measurement": "GI50", "setting": "[42]", "result": "> 10 µM (inactive)"}, {"measurement": "GI50", "setting": "[44]", "result": "> 10 µM (inactive)"}, {"measurement": "GI50", "setting": "[45]", "result": "> 10 µM (inactive)"}, {"measurement": "GI50", "setting": "[46]", "result": "> 10 µM (inactive)"}, {"measurement": "GI50", "setting": "[47]", "result": "> 10 µM (inactive)"}, {"measurement": "GI50", "setting": "[48]", "result": "> 10 µM (inactive)"}, {"measurement": "GI50", "setting": "[49]", "result": "> 10 µM (inactive)"}, {"measurement": "GI50", "setting": "[51]", "result": "> 10 µM (inactive)"}, {"measurement": "GI50", "setting": "[52]", "result": "> 10 µM (inactive)"}, {"measurement": "GI50", "setting": "[58]", "result": "> 10 µM (inactive)"}, {"measurement": "GI50", "setting": "[53]", "result": "> 10 µM (inactive)"}, {"measurement": "GI50", "setting": "[54]", "result": "> 10 µM (inactive)"}, {"measurement": "GI50", "setting": "[55]", "result": "> 10 µM (inactive)"}]}
